Measurements as given in paper PMC5218480 (PLoS ONE, 2017).

System: MV-4-11 cells
Assay: Gene expression microarray analysis (Affymetrix PrimeView) and GSEA
Format: cell-based, human
Parameters: RFU PODN (11730768_x_at) / Fold change /veh PODN (11730768_x_at) / RFU LINC00158 (11744669_a_at) / Fold change /veh LINC00158 (11744669_a_at) / RFU DUSP10 (11751237_a_at) / Fold change /veh DUSP10 (11751237_a_at) / RFU ID3 (11757404_x_at) / Fold change /veh ID3 (11757404_x_at) / RFU PLEKHG5 (11737974_s_at) / Fold change /veh PLEKHG5 (11737974_s_at) / RFU LRRC4B (11730491_at) / Fold change /veh LRRC4B (11730491_at) / RFU GIMAP4 (11747438_a_at) / Fold change /veh GIMAP4 (11747438_a_at) / RFU KRT8 (11758183_x_at) / Fold change /veh KRT8 (11758183_x_at) / RFU CNN1 (11734310_a_at) / Fold change /veh CNN1 (11734310_a_at) / RFU VPS37D (11726825_at) / Fold change /veh VPS37D (11726825_at) / RFU C10orf10 (11716522_x_at) / Fold change /veh C10orf10 (11716522_x_at) / RFU KIR2DL2 /// KIR2DL4 /// KIR2DL5A /// KIR2DL5B /// KIR2DS1 /// KIR2DS2 /// KIR2DS3 /// KIR2DS4 /// KIR3DL3 /// KIR3DL3 /// KIR3DS1 (11738374_at) / Fold change /veh KIR2DL2 /// KIR2DL4 /// KIR2DL5A /// KIR2DL5B /// KIR2DS1 /// KIR2DS2 /// KIR2DS3 /// KIR2DS4 /// KIR3DL3 /// KIR3DL3 /// KIR3DS1 (11738374_at) / RFU C1QL1 (11718748_at) / Fold change /veh C1QL1 (11718748_at) / RFU TMPRSS4 (11747572_a_at) / Fold change /veh TMPRSS4 (11747572_a_at) / RFU HAMP (11756126_x_at) / Fold change /veh HAMP (11756126_x_at) / RFU RNFT2 (11725882_a_at) / Fold change /veh RNFT2 (11725882_a_at) / RFU NR4A2 (11747474_a_at) / Fold change /veh NR4A2 (11747474_a_at) / RFU ABCC12 (11746883_a_at) / Fold change /veh ABCC12 (11746883_a_at) / RFU TMEM136 (11760407_x_at) / Fold change /veh TMEM136 (11760407_x_at) / RFU CLDN22 /// WWC2 (11732394_at) / Fold change /veh CLDN22 /// WWC2 (11732394_at) / RFU HLA-DPB1 (11760878_x_at) / Fold change /veh HLA-DPB1 (11760878_x_at) / RFU SPINT1 (11716480_a_at) / Fold change /veh SPINT1 (11716480_a_at) / RFU GAP43 (11754022_s_at) / Fold change /veh GAP43 (11754022_s_at) / RFU A4GNT (11735810_at) / Fold change /veh A4GNT (11735810_at) / RFU PRB3 (11715151_x_at) / Fold change /veh PRB3 (11715151_x_at) / RFU TUBB4B (11761932_at) / Fold change /veh TUBB4B (11761932_at) / RFU CAPN14 (11732068_a_at) / Fold change /veh CAPN14 (11732068_a_at) / RFU TMCC2 (11721928_a_at) / Fold change /veh TMCC2 (11721928_a_at) / RFU IRGQ (11745062_a_at) / Fold change /veh IRGQ (11745062_a_at) / RFU FAM174B (11720279_a_at) / Fold change /veh FAM174B (11720279_a_at) / RFU TMPRSS4 (11748680_a_at) / Fold change /veh TMPRSS4 (11748680_a_at) / RFU FAM212B (11763350_a_at) / Fold change /veh FAM212B (11763350_a_at) / RFU PLEKHG5 (11743358_a_at) / Fold change /veh PLEKHG5 (11743358_a_at) / RFU ZSCAN30 (11745921_a_at) / Fold change /veh ZSCAN30 (11745921_a_at) / RFU CMKLR1 (11741424_a_at) / Fold change /veh CMKLR1 (11741424_a_at) / RFU LOC101060620 /// MAPK8IP1 (11723275_at) / Fold change /veh LOC101060620 /// MAPK8IP1 (11723275_at) / RFU SPTSSB (11747773_x_at) / Fold change /veh SPTSSB (11747773_x_at) / RFU PRSS12 (11739890_at) / Fold change /veh PRSS12 (11739890_at) / RFU BIN1 (11741810_x_at) / Fold change /veh BIN1 (11741810_x_at) / RFU WNT11 (11732464_a_at) / Fold change /veh WNT11 (11732464_a_at) / RFU C10orf10 (11716521_a_at) / Fold change /veh C10orf10 (11716521_a_at) / RFU C5orf56 (11738089_at) / Fold change /veh C5orf56 (11738089_at) / RFU CYB561 (11721691_x_at) / Fold change /veh CYB561 (11721691_x_at) / RFU ANKRD19P (11752326_a_at) / Fold change /veh ANKRD19P (11752326_a_at) / RFU OR2T12 /// OR2T33 /// OR2T8 (11738714_s_at) / Fold change /veh OR2T12 /// OR2T33 /// OR2T8 (11738714_s_at) / RFU VCAN (11748164_a_at) / Fold change /veh VCAN (11748164_a_at) / RFU JSRP1 (11732532_at) / Fold change /veh JSRP1 (11732532_at) / RFU KRTAP10-11 (11738290_x_at) / Fold change /veh KRTAP10-11 (11738290_x_at) / RFU MYO3A (11730013_a_at) / Fold change /veh MYO3A (11730013_a_at) / RFU EBF3 (11725865_a_at) / Fold change /veh EBF3 (11725865_a_at) / RFU CAMK2N1 (11719241_x_at) / Fold change /veh CAMK2N1 (11719241_x_at) / RFU C5orf56 (11738088_a_at) / Fold change /veh C5orf56 (11738088_a_at) / RFU OLFML3 (11715873_a_at) / Fold change /veh OLFML3 (11715873_a_at) / RFU LOC100653217 /// NTM (11731650_a_at) / Fold change /veh LOC100653217 /// NTM (11731650_a_at) / RFU MAPK11 (11762145_a_at) / Fold change /veh MAPK11 (11762145_a_at) / RFU FIZ1 (11724087_x_at) / Fold change /veh FIZ1 (11724087_x_at) / RFU OASL (11726364_x_at) / Fold change /veh OASL (11726364_x_at) / RFU SOX15 (11748057_x_at) / Fold change /veh SOX15 (11748057_x_at) / RFU CD79A (11719716_a_at) / Fold change /veh CD79A (11719716_a_at) / RFU HIST1H1D (11736915_at) / Fold change /veh HIST1H1D (11736915_at) / RFU CASKIN2 (11723855_a_at) / Fold change /veh CASKIN2 (11723855_a_at) / RFU LOC730098 (11760151_x_at) / Fold change /veh LOC730098 (11760151_x_at) / RFU OR4N2 (11742367_at) / Fold change /veh OR4N2 (11742367_at) / RFU PRRT2 (11749266_a_at) / Fold change /veh PRRT2 (11749266_a_at) / RFU SNX32 (11753110_a_at) / Fold change /veh SNX32 (11753110_a_at) / RFU CDHR5 (11726645_a_at) / Fold change /veh CDHR5 (11726645_a_at) / RFU RCAN1 (11760418_a_at) / Fold change /veh RCAN1 (11760418_a_at) / RFU FAM167A (11723789_a_at) / Fold change /veh FAM167A (11723789_a_at) / RFU FAM26E (11764081_at) / Fold change /veh FAM26E (11764081_at) / RFU ISYNA1 (11749810_s_at) / Fold change /veh ISYNA1 (11749810_s_at) / RFU ACY1 (11761880_at) / Fold change /veh ACY1 (11761880_at) / RFU 11764098_at / Fold change /veh 11764098_at / RFU SAMD14 (11745864_x_at) / Fold change /veh SAMD14 (11745864_x_at) / RFU NPB (11741838_a_at) / Fold change /veh NPB (11741838_a_at) / RFU TMPRSS6 (11731388_a_at) / Fold change /veh TMPRSS6 (11731388_a_at) / RFU KRTAP10-2 (11738614_at) / Fold change /veh KRTAP10-2 (11738614_at) / RFU ARHGAP8 /// PRR5-ARHGAP8 (11727945_x_at) / Fold change /veh ARHGAP8 /// PRR5-ARHGAP8 (11727945_x_at) / RFU KRTAP5-7 /// NADSYN1 (11734609_at) / Fold change /veh KRTAP5-7 /// NADSYN1 (11734609_at) / RFU RASL12 (11751679_a_at) / Fold change /veh RASL12 (11751679_a_at) / RFU CDKN2B (11736163_a_at) / Fold change /veh CDKN2B (11736163_a_at) / RFU PRF1 (11729649_at) / Fold change /veh PRF1 (11729649_at) / RFU, ZNF638 /// ZNF638-IT1 / Fold change vs veh, ZNF638 /// ZNF638-IT1 / RFU, PANK3 / Fold change vs veh, PANK3 / RFU, SH3YL1 / Fold change vs veh, SH3YL1 / RFU, ZEB2 / Fold change vs veh, ZEB2 / RFU, NRIP1 / Fold change vs veh, NRIP1 / RFU, PTTG1IP / Fold change vs veh, PTTG1IP / RFU, CAPN2 / Fold change vs veh, CAPN2 / RFU, MED14 / Fold change vs veh, MED14 / RFU, SNORA58 / Fold change vs veh, SNORA58 / RFU, C1orf63 / Fold change vs veh, C1orf63 / RFU, LRRFIP1 / Fold change vs veh, LRRFIP1 / RFU, NDUFAF7 / Fold change vs veh, NDUFAF7 / RFU, SLC12A2 / Fold change vs veh, SLC12A2 / RFU, IBTK / Fold change vs veh, IBTK / RFU, ESF1 / Fold change vs veh, ESF1 / Fold change vs veh, TMEM50B / RFU, TAOK1 / Fold change vs veh, TAOK1 / RFU, ACBD3 / Fold change vs veh, ACBD3 / RFU, TMA16 / Fold change vs veh, TMA16 / RFU, RWDD3 / Fold change vs veh, RWDD3 / RFU, BCAT1 / Fold change vs veh, BCAT1 / RFU, EDEM3 / Fold change vs veh, EDEM3 / RFU, TMEM33 / Fold change vs veh, TMEM33 / RFU, WDR75 / Fold change vs veh, WDR75 / RFU, AHCTF1 / Fold change vs veh, AHCTF1 / RFU, TFRC / Fold change vs veh, TFRC / RFU, ZDHHC17 / Fold change vs veh, ZDHHC17 / RFU, NOM1 / Fold change vs veh, NOM1 / RFU, ARL8B / Fold change vs veh, ARL8B / RFU, ZBTB11 / Fold change vs veh, ZBTB11 / RFU, TAMM41 / Fold change vs veh, TAMM41 / RFU, KIAA1704 /// LOC100996395 / Fold change vs veh, KIAA1704 /// LOC100996395 / RFU, ING1 / Fold change vs veh, ING1 / RFU, TRMT61B / Fold change vs veh, TRMT61B / RFU, FUBP3 / Fold change vs veh, FUBP3 / RFU, TP53 / Fold change vs veh, TP53 / RFU, TNKS2 / Fold change vs veh, TNKS2 / RFU, ZFP14 / Fold change vs veh, ZFP14 / RFU, ACTR2 / Fold change vs veh, ACTR2 / RFU, PPP3R1 / Fold change vs veh, PPP3R1 / RFU, PIK3R1 / Fold change vs veh, PIK3R1 / RFU, HNRNPA1 / Fold change vs veh, HNRNPA1 / RFU, RNF170 / Fold change vs veh, RNF170 / RFU, ZNF28 / Fold change vs veh, ZNF28 / RFU, RNGTT / Fold change vs veh, RNGTT / RFU, OGT / Fold change vs veh, OGT / RFU, BRD1 / Fold change vs veh, BRD1 / RFU, MARS / Fold change vs veh, MARS / RFU, ZNF655 / Fold change vs veh, ZNF655 / RFU, FAHD1 / Fold change vs veh, FAHD1 / RFU, BDP1 / Fold change vs veh, BDP1 / RFU, LRRCC1 / Fold change vs veh, LRRCC1 / RFU, ARID1A / Fold change vs veh, ARID1A / RFU, ZNF146 / Fold change vs veh, ZNF146 / RFU, ZNF330 / Fold change vs veh, ZNF330 / RFU, GPN3 / Fold change vs veh, GPN3 / RFU, C9orf123 / Fold change vs veh, C9orf123 / RFU, N4BP2L2 / Fold change vs veh, N4BP2L2 / RFU, ARFIP1 / Fold change vs veh, ARFIP1 / RFU, FAM179B / Fold change vs veh, FAM179B / RFU, BCL10 / Fold change vs veh, BCL10 / RFU, UHRF1BP1L / Fold change vs veh, UHRF1BP1L / RFU, BET1 / Fold change vs veh, BET1 / RFU, CNOT2 / Fold change vs veh, CNOT2 / RFU, ZNF268 / Fold change vs veh, ZNF268 / Fold change vs veh, ZNF507 / RFU, DGCR2 / Fold change vs veh, DGCR2 / RFU, WDSUB1 / Fold change vs veh, WDSUB1 / Fold change vs veh, HSP90B1 /// MIR3652 / RFU, ADSS / Fold change vs veh, ADSS / RFU, GK / Fold change vs veh, GK / RFU, ZNF148 / Fold change vs veh, ZNF148 / RFU, TAF9 / Fold change vs veh, TAF9 / RFU, SLC1A5 / Fold change vs veh, SLC1A5 / RFU, SLMO2 / Fold change vs veh, SLMO2 / RFU, ABCC4 / Fold change vs veh, ABCC4 / RFU, LOC101060439 /// RAP1B / Fold change vs veh, LOC101060439 /// RAP1B / RFU, RFX7 / Fold change vs veh, RFX7 / RFU, GTPBP10 / Fold change vs veh, GTPBP10 / RFU, CNEP1R1 / Fold change vs veh, CNEP1R1 / RFU, BIVM-ERCC5 /// ERCC5 / Fold change vs veh, BIVM-ERCC5 /// ERCC5 / RFU, ILF3 / Fold change vs veh, ILF3 / RFU 11762660_at / Fold change /veh 11762660_at / RFU VCAN (11757783_s_at) / Fold change /veh VCAN (11757783_s_at) / RFU DDX43 (11728927_at) / Fold change /veh DDX43 (11728927_at) / RFU KRT8 (11758188_x_at) / Fold change /veh KRT8 (11758188_x_at) / RFU NKD1 (11759106_at) / Fold change /veh NKD1 (11759106_at) / RFU SRD5A1 (11742802_a_at) / Fold change /veh SRD5A1 (11742802_a_at) / RFU TPSAB1 /// TPSB2 (11721975_s_at) / Fold change /veh TPSAB1 /// TPSB2 (11721975_s_at) / RFU GSTM3 (11746129_a_at) / Fold change /veh GSTM3 (11746129_a_at) / RFU IL23R (11737362_x_at) / Fold change /veh IL23R (11737362_x_at) / RFU TMEM51 (11727254_a_at) / Fold change /veh TMEM51 (11727254_a_at) / RFU PIWIL2 (11732686_x_at) / Fold change /veh PIWIL2 (11732686_x_at) / RFU ORM1 (11744905_x_at) / Fold change /veh ORM1 (11744905_x_at) / RFU CCDC152 (11743942_at) / Fold change /veh CCDC152 (11743942_at) / RFU ECM1 (11717891_a_at) / Fold change /veh ECM1 (11717891_a_at) / RFU IL23R (11748794_a_at) / Fold change /veh IL23R (11748794_a_at) / RFU TNFAIP8L3 (11732012_x_at) / Fold change /veh TNFAIP8L3 (11732012_x_at) / RFU MBOAT4 (11741988_at) / Fold change /veh MBOAT4 (11741988_at) / RFU 11764193_at / Fold change /veh 11764193_at / RFU TMEM53 (11763286_at) / Fold change /veh TMEM53 (11763286_at) / RFU MAGEB2 (11727129_at) / Fold change /veh MAGEB2 (11727129_at) / RFU TMEM200A (11744735_a_at) / Fold change /veh TMEM200A (11744735_a_at) / RFU CCDC152 (11751479_a_at) / Fold change /veh CCDC152 (11751479_a_at) / RFU FAM211A (11726209_a_at) / Fold change /veh FAM211A (11726209_a_at) / RFU RGS16 (11746705_a_at) / Fold change /veh RGS16 (11746705_a_at) / RFU VCAN (11755009_s_at) / Fold change /veh VCAN (11755009_s_at) / RFU RHOB (11743442_s_at) / Fold change /veh RHOB (11743442_s_at) / RFU RGS16 (11720943_a_at) / Fold change /veh RGS16 (11720943_a_at) / RFU RGS16 (11720944_at) / Fold change /veh RGS16 (11720944_at) / RFU, VPS4B / Fold change vs veh, VPS4B / RFU, CREB1 / Fold change vs veh, CREB1 / RFU, DNAJC13 / Fold change vs veh, DNAJC13 / RFU, GNAQ / Fold change vs veh, GNAQ / RFU, CDK5R1 / Fold change vs veh, CDK5R1 / RFU, ZRANB3 / Fold change vs veh, ZRANB3 / RFU, CUL4A / Fold change vs veh, CUL4A / RFU, CCNY / Fold change vs veh, CCNY / RFU, UFL1 / Fold change vs veh, UFL1 / RFU, COG3 / Fold change vs veh, COG3 / RFU, DIAPH2 / Fold change vs veh, DIAPH2 / RFU, SKA2 / Fold change vs veh, SKA2 / RFU, AFF3 / Fold change vs veh, AFF3 / RFU, LMF1 / Fold change vs veh, LMF1 / RFU, IPO11 / Fold change vs veh, IPO11 / RFU, DFFB / Fold change vs veh, DFFB / RFU, FOXP1 / Fold change vs veh, FOXP1 / RFU, CARD8 / Fold change vs veh, CARD8 / RFU, STRN3 / Fold change vs veh, STRN3 / RFU, ADK / Fold change vs veh, ADK / RFU, RASSF2 / Fold change vs veh, RASSF2 / RFU, WIPF1 / Fold change vs veh, WIPF1 / RFU, LARP1B / Fold change vs veh, LARP1B / RFU, RASA1 / Fold change vs veh, RASA1 / RFU, RB1 / Fold change vs veh, RB1 / RFU, PPFIA1 / Fold change vs veh, PPFIA1 / RFU, MAT2A / Fold change vs veh, MAT2A / RFU, CCT5 / Fold change vs veh, CCT5 / RFU, WDR92 / Fold change vs veh, WDR92 / RFU, CUX1 / Fold change vs veh, CUX1 / RFU, TTC7A / Fold change vs veh, TTC7A / RFU, TMEM135 / Fold change vs veh, TMEM135 / RFU, DEPTOR / Fold change vs veh, DEPTOR / RFU, CPM / Fold change vs veh, CPM / RFU, DNAJB6 / Fold change vs veh, DNAJB6 / RFU, CACNA2D3 / Fold change vs veh, CACNA2D3 / RFU, DTX4 / Fold change vs veh, DTX4 / RFU, TFCP2 / Fold change vs veh, TFCP2 / RFU, GMCL1 /// GMCL1P1 / Fold change vs veh, GMCL1 /// GMCL1P1 / RFU, AEBP2 / Fold change vs veh, AEBP2 / RFU, SNHG1 /// SNORD22 /// SNORD25 /// SNORD26 /// SNORD27 /// SNORD28 /// SNORD29 /// SNORD31 / Fold change vs veh, SNHG1 /// SNORD22 /// SNORD25 /// SNORD26 /// SNORD27 /// SNORD28 /// SNORD29 /// SNORD31 / Fold change (Aza/veh), C12orf56 (ProbeSet 11735607_a_at) / Fold change (ACY-1035/veh), C12orf56 (ProbeSet 11735607_a_at) / Fold change (Aza/veh), FGFR1OP (ProbeSet 11751329_s_at) / Fold change (ACY-1035/veh), FGFR1OP (ProbeSet 11751329_s_at) / Fold change (Aza/veh), VPS36 (ProbeSet 11739960_a_at) / Fold change (ACY-1035/veh), VPS36 (ProbeSet 11739960_a_at) / RFU SYPL1 (11715823_x_at) / Fold change /veh SYPL1 (11715823_x_at) / RFU IGFBP7 (11715501_s_at) / Fold change /veh IGFBP7 (11715501_s_at) / RFU REEP3 (11722064_at) / Fold change /veh REEP3 (11722064_at) / RFU IGLL1 (11728026_x_at) / Fold change /veh IGLL1 (11728026_x_at): dose or concentration left out as unconfirmed
Details: MV-4-11 cells, 48 hours

`Nc1ncn([C@@H]2O[C@H](CO)[C@@H](O)[C@H]2O)c(=O)n1` [azacitidine] was tested, and the “RFU ZSCAN30 (11745921_a_at)” value was 8.95 RFU.
